{"source": "patent US20170112896A1", "about": "“SMALL MOLECULE RAC OR RHO INHIBITORS” (Ohio State Innovation Foundation, priority 2014, published 2017)", "key": {"[1]": {"system": "actin filaments in A549 cells", "assay": "Actin filament staining (phalloidin-FITC) and cell morphology", "assay_type": "cell-based", "settings": "cells exposed to peptide"}, "[2]": {"system": "Akt, Mek and Erk phosphorylation in H1650 cells", "assay": "Western blot of Akt, Mek, Erk phosphorylation in H1650 cells", "assay_type": "cell-based", "settings": "10 μM, 10 min"}, "[3]": {"system": "Rac and Rho signaling (cofilin, Paxilin, FAK, Mek Ser298, c-Raf Ser338) in H1299 cells", "assay": "Western blot of effector proteins of Rac and Rho signaling in H1299 cells", "assay_type": "cell-based", "settings": "13 μM"}, "[4]": {"system": "EGF receptor phosphorylation", "assay": "IP/Western blot of EGFR phosphorylation", "assay_type": "cell-based", "settings": "13 μM", "from_the_text": "(§1) Two well characterized Ras effector pathways are the Raf-Mek-Erk and PI3K-Akt signaling pathways (Karnoub, A. E. et al. (2008) Nat Rev. Mol. Cell Biol. 9:517). To determine whether the cyclic peptides inhibited the intracellular Ras activity, Applicant monitored the phosphorylation levels of Mek, Erk, and Akt in cells before and after treatment with the Ras inhibitors. […] In order to rule out that the observed downregulation of P-Mek, P-Erk and P-Akt is caused by inhibition of EGFR signaling, the effect of Cyclosrasin 9A5 on the phosphorylation of the EGFR was tested by performing an IP/Western Blot experiment (FIG. 3E). Active, signaling EGFR is highly autohophosphorylated."}, "[5]": {"system": "Akt, Mek and Erk phosphorylation in H1975 cells", "assay": "Western blot of Akt, Mek, Erk phosphorylation in H1975 cells", "assay_type": "cell-based", "settings": "10 μM, 10 min"}, "[6]": {"system": "Akt, Mek and Erk phosphorylation in A549 cells", "assay": "Western blot of Akt, Mek, Erk phosphorylation in A549 cells", "assay_type": "cell-based", "settings": "10 μM, 10 min"}, "[7]": {"system": "Akt, Mek and Erk phosphorylation in H1299 cells", "assay": "Western blot of Ras signaling (Akt, Mek, Erk phosphorylation) in H1299 cells", "assay_type": "cell-based", "settings": "for IC50: 10 min treatment", "from_the_text": "as §1"}, "[8]": {"molecular_target": "T1, Ras(G12V)-Raf RBD interaction (Homo sapiens, UniProt P01116, G12V)", "T1 construct": "The G12V mutant K-Ras (amino acids 1-185) was recombinantly fused to glutathione 5-transferase (GST) at its N-terminus; GST (N, cleaved yes); made in house; host or cells: Escherichia coli BL21", "T1 sequence (P01116 1-185 isoform P01116-2 G12V)": "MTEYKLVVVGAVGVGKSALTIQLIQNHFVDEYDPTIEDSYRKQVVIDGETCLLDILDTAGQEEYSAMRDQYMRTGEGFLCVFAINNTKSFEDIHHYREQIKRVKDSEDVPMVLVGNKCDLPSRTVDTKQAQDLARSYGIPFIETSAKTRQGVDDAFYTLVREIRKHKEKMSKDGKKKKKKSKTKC", "assay": "HTRF assay, inhibition of Ras-Raf RBD interaction", "assay_type": "binding", "settings": "relative to 9A1", "description": "Recombinant HA-tagged K-Ras (no GST, 50 nM), GST-Raf RBD (50 nM each), a monoclonal anti-HA antibody labeled with acceptor d2 (2 μg/mL), a monoclonal anti-GST antibody labeled with donor Tb (0.25 μg/mL) (Cisbio), and increasing concentrations of cyclic peptide (0-20 μM) were mixed in PBS (total volume of 20 μL) in a 384-well plate. The plate was incubated overnight at 4° C. and the HTRF signal was measured on a Molecular Devices Spectramax M5 or a Tecan infinite M1000 Pro plate reader. The data were analyzed by Prism 6.0 from Graphpad Software, Inc. (La Jolla, Calif.) and IC50 values were obtained by fitting the data to dose-response-inhibition curve."}}, "note": "Entries after “also recorded” stand apart in the source; their conditions may differ. Where two headings read alike, the source gives them in different places. Square brackets hold non-standard residues; d marks the D form. Peptide text beside a SMILES is read from it. Phe(4-F) = N[C@@H](Cc1ccc(F)cc1)C(=O)O; d2Nal = N[C@H](Cc1ccc2ccccc2c1)C(=O)O; dNle = CCCC[C@@H](N)C(=O)O", "data": [{"smiles": "CCCC[C@H]1NC(=O)[C@H](Cc2ccc(F)cc2)NC(=O)[C@H](CCCNC(=N)N)NC(=O)[C@@H](Cc2ccc3ccccc3c2)NC(=O)[C@H](CCCNC(=N)N)NC(=O)[C@H](CCCNC(=N)N)NC(=O)[C@H](CCCNC(=N)N)NC(=O)[C@@H](C)NC(=O)[C@H]([C@@H](C)O)NC(=O)[C@H](Cc2c[nH]c3ccccc23)NC(=O)[C@H](CCC(N)=O)NC1=O", "note": "[Cyclorasin 9A5, (Trp-Thr-ala-Arg-Arg-Arg-nal-Arg-Fpa-nle-Gln)] (cyclo(WT[dA]RRR[d2Nal]R[Phe(4-F)][dNle]Q))", "values": [{"measurement": "cell morphology", "setting": "[1]", "value": "rapid morphological changes"}, {"measurement": "Mek, Erk and Akt phosphorylation", "setting": "[2]", "value": "almost completely abolished; also recorded: can be inhibited"}, {"measurement": "phosphorylation of Paxilin (Tyr118), FAK (Tyr397), Mek (Ser298) and c-Raf (Ser338)", "setting": "[3]", "value": "dephosphorylated"}, {"measurement": "phosphorylation of cofilin", "setting": "[3]", "value": "decreased"}, {"measurement": "EGFR phosphorylation level", "setting": "[4]", "value": "does no affect; also recorded: no effect"}, {"measurement": "Mek, Erk and Akt phosphorylation", "setting": "[5]", "value": "almost completely abolished; also recorded: can be inhibited"}, {"measurement": "Mek, Erk and Akt phosphorylation", "setting": "[6]", "value": "significant Mek and Erk phosphorylation remained"}, {"measurement": "basal phosphorylation of Mek and Akt", "setting": "[7]; H1299 cells unstimulated with EGF, 10 μM for 10 min", "value": "inhibited"}, {"measurement": "Mek, Erk and Akt phosphorylation", "setting": "[7]; H1299 cells, 10 μM, 10 min", "value": "almost completely abolished"}, {"measurement": "EGF-induced phosphorylation of Akt and Mek", "setting": "[7]; H1299 cells, 13 μM, 5 min", "value": "significant reduction"}, {"measurement": "phosphorylation level of Erk", "setting": "[7]; H1299 cells, 13 μM, time course", "value": "decreased, but to a lesser extent and at a later time point"}, {"measurement": "EGF-induced phosphorylation of Akt and Mek", "setting": "[7]; H1299 cells, 13 μM, ≧10 min", "value": "completely abolished"}, {"measurement": "IC50", "setting": "[7]; H1299 cells, read-out: IC50, inhibition of Akt phosphorylation", "value": "~5", "unit": "µM"}, {"measurement": "IC50", "setting": "[7]; H1299 cells, read-out: IC50, inhibition of Mek phosphorylation", "value": "~5", "unit": "µM"}, {"measurement": "higher potency than 9A1 against K-Ras", "setting": "[8]", "value": 3, "unit": "fold"}, {"measurement": "cell permeability / intracellular fluorescence", "setting": "A549 lung cancer cells", "value": "improved cell permeability"}]}]}
